Measured values as given in patent publication US5607967A, “Treatment of alzheimer's disease with 5-(tetradecyloxy)-2-furan carboxylic acid” (Merck & Co., Inc., priority 1994, dated 1997).

Tests used:
[1] = tested on: Dopamine D2 receptor antagonist (Haloperidol) induced catalepsy; assay: Haloperidol induced catalepsy (Bar method); type: in vivo, rat; conditions: carrier pretreatment, 24 h later 0.1 mg/kg Haloperidol
PC12 cells = assay: Neurite differentiation of PC12 cells; type: cell-based; conditions: NGF alone (100 ng/mL), 4 days
Protocol: To further study the influence of TOFA on the nervous system, we tested the effect of TOFA on the differentiation of PC12 cells. PC12 cells were plated at a density of approximately 100-200/mm^2 on collagen coated plates or dishes in RPMI medium supplemented with 10% horse serum, 5% fetal calf serum, […] streptomycin, 50 U/mL penicillin in a water saturated atmosphere of 95% air and 5% CO2, at 37° C. overnight. Medium was replaced with fresh RPMI containing 1.5% serum, 100 ng/mL NGF and the indicated concentration of TOFA or an equivalent volume of vehicle (DMSO) giving a final concentration of 0.1% DMSO.
At different time points during the treatment, cells were photographed or fixed with 10% formalin. Morphology was examined after four days of treatment with TOFA or vehicle (DMSO). The number of cells beating neurites and average length of neurites were determined with the aid of the Bioquant imaging system. […] However, as depicted in Table 6 below, NGF alone induced a 15% increase in the number of cells bearing neurites and these outgrowths reached a mean length of 20 μm. Treatment with NGF and TOFA increased the percentage of cells beating neurites to 78%. Maximal neurite generation is observed at a concentration of 10 μM TOFA.
Cells were treated with vehicle (0.1% DMSO) or various concentrations of TOFA in the presence of 100 ng/mL NGF for 4 days, and then fixed with 10% formalin. At least eighty cells from eight wells were analyzed in each group. The results are shown as the mean ±SEM. ^a p<0.01, versus vehicle by Dunnetts test.

[2] = biological target: T1, GR/PPAR chimeric receptor (Mus musculus, UniProt P23204); assay: Ligand dependent transcription assay, GR/PPAR chimeric receptor with MMTV-luciferase reporter; type: cell-based
T1 construct: COS cells, MMTV-luciferase
T1 sequence (P23204 1-468): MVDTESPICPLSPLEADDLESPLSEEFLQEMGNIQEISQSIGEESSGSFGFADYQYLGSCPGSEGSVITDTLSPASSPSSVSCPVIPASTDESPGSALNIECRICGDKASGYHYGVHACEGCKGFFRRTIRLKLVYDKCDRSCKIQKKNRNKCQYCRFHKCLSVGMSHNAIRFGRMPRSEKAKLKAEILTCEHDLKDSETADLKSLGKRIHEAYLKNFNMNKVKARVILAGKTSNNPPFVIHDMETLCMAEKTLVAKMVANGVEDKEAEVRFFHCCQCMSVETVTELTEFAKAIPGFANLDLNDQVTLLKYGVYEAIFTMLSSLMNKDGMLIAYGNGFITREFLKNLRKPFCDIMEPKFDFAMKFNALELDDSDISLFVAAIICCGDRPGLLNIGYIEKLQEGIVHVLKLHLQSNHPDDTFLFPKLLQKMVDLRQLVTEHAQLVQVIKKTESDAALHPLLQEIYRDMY
T1 sequence (P06537 1-792 partner): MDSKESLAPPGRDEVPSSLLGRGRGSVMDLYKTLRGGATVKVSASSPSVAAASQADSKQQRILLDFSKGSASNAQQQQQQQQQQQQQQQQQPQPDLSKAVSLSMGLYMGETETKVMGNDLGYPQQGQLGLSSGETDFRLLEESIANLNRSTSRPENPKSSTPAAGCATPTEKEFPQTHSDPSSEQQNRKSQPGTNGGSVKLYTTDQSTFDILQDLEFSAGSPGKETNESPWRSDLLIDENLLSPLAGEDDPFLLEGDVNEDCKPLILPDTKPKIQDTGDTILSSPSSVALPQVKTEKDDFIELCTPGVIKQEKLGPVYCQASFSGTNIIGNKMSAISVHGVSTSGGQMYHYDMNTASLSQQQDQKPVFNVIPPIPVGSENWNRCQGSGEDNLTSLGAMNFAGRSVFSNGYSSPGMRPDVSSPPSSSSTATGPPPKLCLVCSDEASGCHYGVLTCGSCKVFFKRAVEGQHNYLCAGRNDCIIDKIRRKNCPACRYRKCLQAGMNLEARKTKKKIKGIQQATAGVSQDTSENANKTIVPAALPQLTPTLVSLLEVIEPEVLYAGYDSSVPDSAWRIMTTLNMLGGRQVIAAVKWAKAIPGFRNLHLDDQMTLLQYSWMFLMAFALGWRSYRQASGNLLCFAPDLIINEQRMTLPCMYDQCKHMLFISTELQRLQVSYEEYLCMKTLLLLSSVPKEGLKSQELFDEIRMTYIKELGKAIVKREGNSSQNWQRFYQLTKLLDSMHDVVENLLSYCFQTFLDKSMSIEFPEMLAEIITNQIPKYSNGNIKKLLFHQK
Protocol: (§1) Similar hybrid receptors GR/NER, GR/NUC and GR/PPAR, in identical expression plasmid backgrounds were prepared essentially as described for the construction of the GR/mPPAR and GR/NUC chimeric receptors in Schmidt et al., "Identification of a new member of the steroid hormone receptor superfamily that is activated by a peroxisome proliferator and fatty acids," Mol. Endocrinol., 6(10):1634-41, 1992, and in Boie et al., "Enantioselective activation of the peroxisome proliferator-activated receptor", J. Biol. Chem. 268(8):5530-4, 1993.
(§2) Briefly, the amino terminal portion of the mouse glucocorticoid receptor (mGR), that includes the DNA binding domain was fused to the putative ligand binding domains of the nuclear receptor NER, hNUC-I (Schmidt et al., 1992), mPPAR (Issenmann and Green, 1990) to form the respective chimeric receptors GR/NER, GR/NUC and GR/PPAR. The GR/NER chimeric receptor was constructed as described for the GR/NUC and GR/PPAR hybrid receptors (Schmidt et al., 1992; Boie et al). The cDNA sequences coding for amino acids Arg^155 and Glu^156 of the NER receptor were converted to the Xho I restriction site, that was later used for the ligation to the GR cDNA sequences that coded for the DNA binding domain. Thus, converting amino acid residues Arg^155 and Glu^156 of NER receptor to amino acid residues Ser^155 and His^156.
The ligand transcription assay mediated by GR/PPAR in COS cells was performed as described in Example 4. The cells were treated with TOFA and Cerulenin at 0.1, 1, 10 and 100 μM.

human NUCI receptor = biological target: T2, human NUCI receptor (Homo sapiens, UniProt Q03181); assay: Transcription assay, native NUC-I receptor co-transfected with MMTV-luciferase reporter; conditions: read-out: Fold of stimulation NUC-I
T2 sequence (Q03181 1-441): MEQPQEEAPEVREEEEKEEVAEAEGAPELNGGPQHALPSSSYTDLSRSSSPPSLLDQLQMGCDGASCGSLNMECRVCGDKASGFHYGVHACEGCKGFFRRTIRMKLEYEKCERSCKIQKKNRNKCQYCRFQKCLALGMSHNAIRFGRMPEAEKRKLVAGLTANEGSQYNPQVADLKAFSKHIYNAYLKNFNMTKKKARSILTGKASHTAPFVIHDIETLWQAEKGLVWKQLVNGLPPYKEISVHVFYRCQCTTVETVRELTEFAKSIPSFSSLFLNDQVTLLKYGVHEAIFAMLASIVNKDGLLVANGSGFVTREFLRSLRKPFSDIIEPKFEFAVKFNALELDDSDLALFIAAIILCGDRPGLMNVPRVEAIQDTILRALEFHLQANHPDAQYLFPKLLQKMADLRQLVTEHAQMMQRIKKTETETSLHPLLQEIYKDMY
Protocol: (§3) The reporter gene was the plasmid pJA358 in which the expression of firefly luciferase is regulated by two tandem repeats of the glucocorticoid hormone response element (GRE) linked to the MMTV promoter (Boie et al., 1993).
(§4) Transient transfection of COS and CV1 cells was performed as described (Schmidt 1992). Cells were plated (1.5×10^5 in 1 mL) into 12 well dishes in phenol red-free medium supplemented with activated charcoal treated fetal calf serum. The next day 0.12 mL of DNA 10 μg/ml (5 μg receptor DNA and 5 μg reporter plasmid), as a calcium phosphate precipitate, was added to the cells. Ligands were added to the cells 30 minutes after transfection. The next day (18 hours), the cells were washed and fresh ligands added. Twenty-four hours later, cell extracts were prepared and assayed for luciferase enzyme activity using the luciferase assay system (Promega Madison, Wis.). Each transfection was performed in triplicate and the luciferase activity of each sample measured in duplicate using the AutoClinilumat (Berthold Nashua, N.H.).
(§5) The transfected cells were treated with TOFA at 2 μM, 10 μM, 20 μM, and 50 μM and oleic acid at 50 μM, and 300 μM.

[3] = biological target: T1, GR/PPAR chimeric receptor; assay: Ligand dependent transcription assay, GR/PPAR chimeric receptor with MMTV-luciferase reporter; type: cell-based; conditions: read-out: Fold of stimulation GR/PPAR
[4] = biological target: T3, native mouse glucocorticoid receptor (Mus musculus, UniProt P06537); assay: Transcription assay, native glucocorticoid receptor co-transfected with MMTV-luciferase reporter; conditions: read-out: Fold of stimulation GR
T3 sequence (P06537 1-792): T1 sequence (P06537 1-792 partner)
Protocol: as §3, §4, §5

GR/NUC chimeric receptor = biological target: T4, GR/NUC chimeric receptor (Homo sapiens, UniProt Q03181); assay: Ligand dependent transcription assay, GR/NUC chimeric receptor with MMTV-luciferase reporter; type: cell-based
T4 construct: transfected cells, MMTV-luciferase
T4 sequence (Q03181 1-441): T2 sequence (Q03181 1-441)
T4 sequence (P06537 1-792 partner): T1 sequence (P06537 1-792 partner)
Protocol: as §1, §2

GR/NER chimeric receptor = assay: Ligand dependent transcription assay, GR/NER chimeric receptor with MMTV-luciferase reporter; type: cell-based, human
Protocol: To search for putative ligands for the NER receptor, the chimeric receptor GR/NER was prepared. […] Chimeric receptors were prepared in which the amino terminal portion of the mouse glucocorticoid receptor (mGR) that includes the DNA binding domain was fused to the putative ligand binding domains of the nuclear receptor NER to form the respective chimeric receptor GR/NER. The cDNA sequences coding for amino acid residues Arg^155 and Glu^156 of the hNER receptor (Shinar et al., NER, a new member of a gene family encoding the steroid hormone nuclear receptor; GENE (in press) were convened to the Xho I restriction site, which site was later used for the ligation to the GR cDNA sequences that coded for the DNA binding domain. Thus, the amino acid residues Arg^155 and Glu^156 of the NER receptor were convened to amino acid residues Ser^155 and His^156.
The chimera was employed in ligand dependent transactivation assays with the reporter gene MMTV-luciferase, in which the luciferase cDNA is transcribed under the control of the MMTV promoter.
as §1, §2

## O=C(CCCN1CCC(O)(c2ccc(Cl)cc2)CC1)c1ccc(F)cc1 [Haloperidol, haloperidol, reference compound]
[1]
  Catalepsy Duration: 20.3 ± 6.7 s

## NGF: nerve growth factor
PC12 cells
  Mean length of neurite outgrowths: 20 μm
  Number of cells bearing neurites: 15%

## CCCCCCCC/C=C\CCCCCCCC(=O)O [Oleic Acid, oleic acid, reference compound]
[2]
  Expression mediated by GR/PPAR: activated expression
Human NUCI receptor
  fold induction at 150 µM: 0.55 ± 0.08
[3]
  fold induction at 50 µM: 2.87 ± 0.2
  fold induction at 300 µM: 14.69 ± 0.06
[4]
  fold induction at 150 µM: 0.44 ± 0.17
GR/NUC chimeric receptor
  Expression mediated by GR/NUC: activated expression
GR/NUC chimeric receptor; read-out: Fold of stimulation GR/NUC
  fold induction at 150 µM: 3.42 ± 0.28
GR/NER chimeric receptor
  Expression mediated by GR/NER: not by the GR/NER chimera
GR/NER chimeric receptor; 50 μM
  Fold of stimulation GR/NER: 0.90 ± 0.13 fold
GR/NER chimeric receptor; 300 μM
  Fold of stimulation GR/NER: 0.73 ± 0.21 fold
